Tests used:
Assay in all cases: KINOMEscan competition binding
Conditions in all cases: compound 10.0 µM
ADCK3 (human) = ADCK3 (human) (UniProt Q8NI60)
AURKC (human) = AURKC (human) (UniProt Q9UQB9)
BMPR1B (human) = BMPR1B (human) (UniProt O00238)
CDC42BPB (human) = CDC42BPB (human) (UniProt Q9Y5S2)
CDK17 (human) = CDK17 (human) (UniProt Q00537)
CDK18 (human) = CDK18 (human) (UniProt Q07002)
CDK4 CCND1 (human) = CDK4 CCND1 (human) (UniProt P11802+P24385)
CSK (human) = CSK (human) (UniProt P41240)
CaMK1 (human) = CaMK1 (human) (UniProt Q14012)
EPHB4 (human) = EPHB4 (human) (UniProt P54760)
FGFR4 (human) = FGFR4 (human) (UniProt P22455)
GRK4 (human) = GRK4 (human) (UniProt P32298)
ICK (human) = ICK (human) (UniProt Q9UPZ9)
Chain of ICK (human) (Q9UPZ9 whole entry, looked up): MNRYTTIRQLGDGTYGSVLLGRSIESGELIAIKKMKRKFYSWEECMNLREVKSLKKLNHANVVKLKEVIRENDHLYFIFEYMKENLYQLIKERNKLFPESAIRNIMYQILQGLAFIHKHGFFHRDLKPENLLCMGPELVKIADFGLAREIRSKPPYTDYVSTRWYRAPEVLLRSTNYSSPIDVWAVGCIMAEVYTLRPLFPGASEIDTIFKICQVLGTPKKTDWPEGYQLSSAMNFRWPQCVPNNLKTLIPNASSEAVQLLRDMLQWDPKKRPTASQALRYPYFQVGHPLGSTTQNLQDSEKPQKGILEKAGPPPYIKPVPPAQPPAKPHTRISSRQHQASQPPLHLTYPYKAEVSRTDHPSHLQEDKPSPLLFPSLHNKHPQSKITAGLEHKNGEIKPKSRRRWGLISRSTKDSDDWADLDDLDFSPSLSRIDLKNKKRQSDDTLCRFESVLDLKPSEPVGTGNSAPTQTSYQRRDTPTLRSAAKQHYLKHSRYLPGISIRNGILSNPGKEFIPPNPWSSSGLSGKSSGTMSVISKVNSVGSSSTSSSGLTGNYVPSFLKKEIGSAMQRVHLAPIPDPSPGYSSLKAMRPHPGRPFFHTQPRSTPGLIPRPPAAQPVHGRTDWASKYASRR

LTK (human) = LTK (human) (UniProt P29376)
Chain of LTK (human) (P29376 whole entry, looked up): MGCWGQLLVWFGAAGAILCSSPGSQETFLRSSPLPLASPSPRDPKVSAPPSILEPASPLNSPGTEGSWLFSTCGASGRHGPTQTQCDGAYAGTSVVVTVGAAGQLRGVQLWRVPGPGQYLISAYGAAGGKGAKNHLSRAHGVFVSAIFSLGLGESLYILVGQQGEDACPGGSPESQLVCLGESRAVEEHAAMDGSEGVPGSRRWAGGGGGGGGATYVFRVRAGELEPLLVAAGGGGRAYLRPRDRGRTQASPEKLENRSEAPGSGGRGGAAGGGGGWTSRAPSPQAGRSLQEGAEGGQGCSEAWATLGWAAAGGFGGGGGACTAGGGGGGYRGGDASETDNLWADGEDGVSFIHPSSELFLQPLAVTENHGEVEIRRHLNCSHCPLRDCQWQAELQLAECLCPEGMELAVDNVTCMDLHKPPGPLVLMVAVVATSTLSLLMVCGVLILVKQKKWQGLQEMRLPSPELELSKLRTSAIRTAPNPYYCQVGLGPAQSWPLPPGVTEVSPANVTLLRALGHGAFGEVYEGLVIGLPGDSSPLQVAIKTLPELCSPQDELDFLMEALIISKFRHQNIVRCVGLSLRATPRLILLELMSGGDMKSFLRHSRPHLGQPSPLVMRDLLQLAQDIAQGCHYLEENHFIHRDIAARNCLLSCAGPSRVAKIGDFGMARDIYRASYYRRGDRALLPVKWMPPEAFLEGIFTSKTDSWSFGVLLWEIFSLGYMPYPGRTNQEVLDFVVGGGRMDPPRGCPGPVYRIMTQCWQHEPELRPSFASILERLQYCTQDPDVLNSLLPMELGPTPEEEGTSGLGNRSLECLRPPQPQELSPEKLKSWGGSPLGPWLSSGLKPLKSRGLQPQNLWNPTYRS

MAP3K2 (human) = MAP3K2 (human) (UniProt Q9Y2U5)
MAP4K1 (human) = MAP4K1 (human) (UniProt Q92918)
MAPK10 (human) = MAPK10 (human) (UniProt P53779)
Chain of MAPK10 (human) (P53779 whole entry, looked up): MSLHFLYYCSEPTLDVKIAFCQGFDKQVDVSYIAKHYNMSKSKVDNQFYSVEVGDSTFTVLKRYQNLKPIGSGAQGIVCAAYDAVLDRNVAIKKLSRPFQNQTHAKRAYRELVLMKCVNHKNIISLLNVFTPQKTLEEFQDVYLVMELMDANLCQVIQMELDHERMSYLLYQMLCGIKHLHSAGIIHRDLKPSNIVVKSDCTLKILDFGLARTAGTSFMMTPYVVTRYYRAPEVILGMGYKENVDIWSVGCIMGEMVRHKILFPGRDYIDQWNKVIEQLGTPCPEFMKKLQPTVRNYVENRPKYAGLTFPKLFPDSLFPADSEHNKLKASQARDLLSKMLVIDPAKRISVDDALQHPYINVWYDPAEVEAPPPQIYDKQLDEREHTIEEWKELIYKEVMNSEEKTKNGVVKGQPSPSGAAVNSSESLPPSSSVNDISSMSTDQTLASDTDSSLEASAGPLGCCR

MAPK15 (human) = MAPK15 (human) (UniProt Q8TD08)
Chain of MAPK15 (human) (Q8TD08 whole entry, looked up): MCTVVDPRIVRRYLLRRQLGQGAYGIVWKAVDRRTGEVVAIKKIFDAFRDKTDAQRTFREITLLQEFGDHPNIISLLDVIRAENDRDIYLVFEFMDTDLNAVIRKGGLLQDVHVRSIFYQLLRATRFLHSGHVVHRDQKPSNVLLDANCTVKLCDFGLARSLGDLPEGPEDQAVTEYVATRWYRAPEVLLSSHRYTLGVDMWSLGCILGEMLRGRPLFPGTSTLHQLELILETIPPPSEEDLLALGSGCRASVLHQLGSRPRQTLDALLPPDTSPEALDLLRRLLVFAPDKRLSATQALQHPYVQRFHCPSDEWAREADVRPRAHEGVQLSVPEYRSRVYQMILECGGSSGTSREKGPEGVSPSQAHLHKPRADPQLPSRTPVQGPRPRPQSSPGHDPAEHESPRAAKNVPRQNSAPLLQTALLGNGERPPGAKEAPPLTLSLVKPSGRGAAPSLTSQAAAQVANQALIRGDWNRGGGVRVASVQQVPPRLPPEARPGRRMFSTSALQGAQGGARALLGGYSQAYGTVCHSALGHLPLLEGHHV

MAPK3 (human) = MAPK3 (human) (UniProt P27361)
Chain of MAPK3 (human) (P27361 whole entry, looked up): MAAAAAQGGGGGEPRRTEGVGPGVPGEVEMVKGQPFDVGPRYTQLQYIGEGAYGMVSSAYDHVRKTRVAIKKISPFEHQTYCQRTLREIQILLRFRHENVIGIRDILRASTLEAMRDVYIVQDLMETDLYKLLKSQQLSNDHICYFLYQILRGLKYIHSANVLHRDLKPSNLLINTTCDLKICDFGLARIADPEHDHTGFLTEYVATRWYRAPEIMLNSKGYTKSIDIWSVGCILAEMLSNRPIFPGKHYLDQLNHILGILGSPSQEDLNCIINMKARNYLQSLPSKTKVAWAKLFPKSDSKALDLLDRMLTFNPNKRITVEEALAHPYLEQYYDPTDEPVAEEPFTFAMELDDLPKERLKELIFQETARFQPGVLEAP

MARK1 (human) = MARK1 (human) (UniProt Q9P0L2)
[1] = system: MET (human), P08581 [Y1235D]
MYO3A (human) = MYO3A (human) (UniProt Q8NEV4)
NEK11 (human) = NEK11 (human) (UniProt Q8NG66)
Chain of NEK11 (human) (Q8NG66 whole entry, looked up): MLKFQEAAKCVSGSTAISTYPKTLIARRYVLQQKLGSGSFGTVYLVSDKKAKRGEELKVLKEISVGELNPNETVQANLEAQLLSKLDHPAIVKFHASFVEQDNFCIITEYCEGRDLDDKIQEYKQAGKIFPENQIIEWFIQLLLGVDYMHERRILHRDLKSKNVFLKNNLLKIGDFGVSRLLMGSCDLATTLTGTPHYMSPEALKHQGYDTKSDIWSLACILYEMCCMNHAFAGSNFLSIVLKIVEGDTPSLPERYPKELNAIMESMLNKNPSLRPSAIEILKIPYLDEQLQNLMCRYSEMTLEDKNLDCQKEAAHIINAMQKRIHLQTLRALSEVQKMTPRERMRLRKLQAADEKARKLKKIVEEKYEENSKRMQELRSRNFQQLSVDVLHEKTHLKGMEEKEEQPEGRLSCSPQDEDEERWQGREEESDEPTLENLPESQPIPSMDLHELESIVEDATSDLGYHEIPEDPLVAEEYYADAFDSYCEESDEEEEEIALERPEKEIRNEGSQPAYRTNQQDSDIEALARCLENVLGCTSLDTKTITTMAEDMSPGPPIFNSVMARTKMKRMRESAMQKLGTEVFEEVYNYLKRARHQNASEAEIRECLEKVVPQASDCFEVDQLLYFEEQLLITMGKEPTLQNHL

NEK7 (human) = NEK7 (human) (UniProt Q8TDX7)
NTRK1 (human) = NTRK1 (human) (UniProt P04629)
PAK6 (human) = PAK6 (human) (UniProt Q9NQU5)
PKN3 (M.tuberculosis) = PKN3 (M.tuberculosis) (UniProt Q6P5Z2)
PRKD2 (human) = PRKD2 (human) (UniProt Q9BZL6)
PRKG1 (human) = PRKG1 (human) (UniProt Q13976)
[2] = system: RET (human), P07949 [M918T]
ROCK1 (human) = ROCK1 (human) (UniProt Q13464)
RPS6KA1 KD1 (human) = RPS6KA1 KD1 (human) (UniProt Q15418)
RPS6KA5 KD1 (human) = RPS6KA5 KD1 (human) (UniProt O75582)
Chain of RPS6KA5 KD1 (human) (O75582 whole entry, looked up): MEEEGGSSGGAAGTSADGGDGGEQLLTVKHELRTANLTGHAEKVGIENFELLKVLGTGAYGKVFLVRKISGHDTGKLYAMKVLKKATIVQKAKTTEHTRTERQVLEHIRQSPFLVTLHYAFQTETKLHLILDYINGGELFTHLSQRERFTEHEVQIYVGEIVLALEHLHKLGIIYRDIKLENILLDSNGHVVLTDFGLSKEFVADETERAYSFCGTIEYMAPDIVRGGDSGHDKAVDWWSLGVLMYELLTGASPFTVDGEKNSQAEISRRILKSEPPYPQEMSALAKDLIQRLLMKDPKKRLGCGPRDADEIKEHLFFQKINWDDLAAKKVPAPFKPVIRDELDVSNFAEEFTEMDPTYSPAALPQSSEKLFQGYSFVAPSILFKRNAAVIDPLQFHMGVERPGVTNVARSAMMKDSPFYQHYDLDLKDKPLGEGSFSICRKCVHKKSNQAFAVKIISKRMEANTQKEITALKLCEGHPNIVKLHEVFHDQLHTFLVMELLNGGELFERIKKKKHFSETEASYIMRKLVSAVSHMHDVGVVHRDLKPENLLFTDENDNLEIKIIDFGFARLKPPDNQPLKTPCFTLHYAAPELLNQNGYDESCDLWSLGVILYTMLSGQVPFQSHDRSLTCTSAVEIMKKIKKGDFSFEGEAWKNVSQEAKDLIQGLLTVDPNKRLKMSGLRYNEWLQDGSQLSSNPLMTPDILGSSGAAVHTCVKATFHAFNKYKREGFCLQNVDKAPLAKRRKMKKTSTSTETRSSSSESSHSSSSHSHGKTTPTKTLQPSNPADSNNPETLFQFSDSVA

TBK1 (human) = TBK1 (human) (UniProt Q9UHD2)
TEK (human) = TEK (human) (UniProt Q02763)
TLK1 (human) = TLK1 (human) (UniProt Q9UKI8)
TNK1 (human) = TNK1 (human) (UniProt Q13470)
BRSK1 (human) = BRSK1 (human) (UniProt Q8TDC3)
CAMKK1 (human) = CAMKK1 (human) (UniProt Q8N5S9)
SRPK1 (human) = SRPK1 (human) (UniProt Q96SB4)

Chain of ADCK3 (human) (Q8NI60 whole entry, looked up): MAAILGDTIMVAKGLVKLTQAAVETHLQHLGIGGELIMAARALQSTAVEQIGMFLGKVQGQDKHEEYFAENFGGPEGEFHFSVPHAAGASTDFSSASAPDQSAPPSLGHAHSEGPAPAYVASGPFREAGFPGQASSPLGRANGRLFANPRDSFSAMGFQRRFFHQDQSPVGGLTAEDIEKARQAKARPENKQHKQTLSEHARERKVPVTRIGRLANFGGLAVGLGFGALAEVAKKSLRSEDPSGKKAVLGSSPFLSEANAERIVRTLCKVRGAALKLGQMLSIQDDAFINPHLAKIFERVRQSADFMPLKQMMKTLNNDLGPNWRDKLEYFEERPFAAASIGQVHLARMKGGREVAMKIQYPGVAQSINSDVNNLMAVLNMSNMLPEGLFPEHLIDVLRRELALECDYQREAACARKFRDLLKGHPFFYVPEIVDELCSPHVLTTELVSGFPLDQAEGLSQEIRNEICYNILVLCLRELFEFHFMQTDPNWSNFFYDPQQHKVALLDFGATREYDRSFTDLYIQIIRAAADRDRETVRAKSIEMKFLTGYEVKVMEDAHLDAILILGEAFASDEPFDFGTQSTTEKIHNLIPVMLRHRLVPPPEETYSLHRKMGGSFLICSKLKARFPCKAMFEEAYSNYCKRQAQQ

SMILES	kinase still bound, per cent of control (ADCK3 (human))	kinase still bound, per cent of control (AURKC (human))	kinase still bound, per cent of control (BMPR1B (human))	kinase still bound, per cent of control (CDC42BPB (human))	kinase still bound, per cent of control (CDK17 (human))	kinase still bound, per cent of control (CDK4 CCND1 (human))	kinase still bound, per cent of control (CSK (human))	kinase still bound, per cent of control (CaMK1 (human))	kinase still bound, per cent of control (EPHB4 (human))	kinase still bound, per cent of control (FGFR4 (human))	kinase still bound, per cent of control (GRK4 (human))	kinase still bound, per cent of control (ICK (human))	kinase still bound, per cent of control (LTK (human))	kinase still bound, per cent of control (MAP3K2 (human))	kinase still bound, per cent of control (MAP4K1 (human))	kinase still bound, per cent of control (MAPK10 (human))	kinase still bound, per cent of control (MAPK15 (human))	kinase still bound, per cent of control (MAPK3 (human))	kinase still bound, per cent of control (MARK1 (human))	kinase still bound, per cent of control [1]	also measured
COc1cc2ncn(-c3cc(OCc4ccccc4C(F)(F)F)c(C(N)=O)s3)c2cc1OC	61%	27%	64%	64%	100%	91%	97%	100%	87%	77%	18%	100%	100%	100%	44%	89%	46%	100%	82%	40%	kinase still bound, per cent of control (CDK18 (human)): 83%; kinase still bound, per cent of control (MYO3A (human)): 81%; kinase still bound, per cent of control (NEK11 (human)): 100%; kinase still bound, per cent of control (NEK7 (human)): 74%; kinase still bound, per cent of control (NTRK1 (human)): 78%; kinase still bound, per cent of control (PAK6 (human)): 94%; kinase still bound, per cent of control (PKN3 (M.tuberculosis)): 76%; kinase still bound, per cent of control (PRKD2 (human)): 100%; kinase still bound, per cent of control (PRKG1 (human)): 100%; kinase still bound, per cent of control [2]: 8%; kinase still bound, per cent of control (ROCK1 (human)): 4.7%; kinase still bound, per cent of control (RPS6KA1 KD1 (human)): 96%; kinase still bound, per cent of control (RPS6KA5 KD1 (human)): 100%; kinase still bound, per cent of control (TBK1 (human)): 83%; kinase still bound, per cent of control (TEK (human)): 57%; kinase still bound, per cent of control (TLK1 (human)): 96%; kinase still bound, per cent of control (TNK1 (human)): 36%
O=c1cc(N2CCOCC2)oc2c(-c3cccc4c3sc3ccccc34)cccc12	72%	100%	35%	88%	100%	100%	100%	91%	87%	99%	100%	100%	93%	100%	90%	100%	100%	100%	100%	59%	kinase still bound, per cent of control (BRSK1 (human)): 100%; kinase still bound, per cent of control (CAMKK1 (human)): 85%; kinase still bound, per cent of control (CDK18 (human)): 100%; kinase still bound, per cent of control (MYO3A (human)): 89%; kinase still bound, per cent of control (NEK11 (human)): 100%; kinase still bound, per cent of control (NEK7 (human)): 100%; kinase still bound, per cent of control (NTRK1 (human)): 81%; kinase still bound, per cent of control (PAK6 (human)): 94%; kinase still bound, per cent of control (PKN3 (M.tuberculosis)): 6.6%; kinase still bound, per cent of control (PRKD2 (human)): 100%; kinase still bound, per cent of control (PRKG1 (human)): 100%; kinase still bound, per cent of control [2]: 98%; kinase still bound, per cent of control (ROCK1 (human)): 100%; kinase still bound, per cent of control (RPS6KA1 KD1 (human)): 100%; kinase still bound, per cent of control (RPS6KA5 KD1 (human)): 100%; kinase still bound, per cent of control (SRPK1 (human)): 100%; kinase still bound, per cent of control (TBK1 (human)): 84%; kinase still bound, per cent of control (TEK (human)): 100%; kinase still bound, per cent of control (TLK1 (human)): 71%; kinase still bound, per cent of control (TNK1 (human)): 100%
N#CCNC(=O)c1ccc(-c2ccnc(Nc3ccc(N4CCOCC4)cc3)n2)cc1	90%	18%	85%	42%	55%	13%	100%	59%	100%	91%	10%	100%	100%	100%	11%	2.4%	0.25%	100%	66%	100%	kinase still bound, per cent of control (BRSK1 (human)): 100%; kinase still bound, per cent of control (CAMKK1 (human)): 27%; kinase still bound, per cent of control (MYO3A (human)): 100%; kinase still bound, per cent of control (NEK11 (human)): 100%; kinase still bound, per cent of control (NEK7 (human)): 2.2%; kinase still bound, per cent of control (PAK6 (human)): 100%; kinase still bound, per cent of control (PKN3 (M.tuberculosis)): 8.7%; kinase still bound, per cent of control (PRKD2 (human)): 43%; kinase still bound, per cent of control (PRKG1 (human)): 100%; kinase still bound, per cent of control [2]: 78%; kinase still bound, per cent of control (ROCK1 (human)): 2.9%; kinase still bound, per cent of control (RPS6KA1 KD1 (human)): 100%; kinase still bound, per cent of control (RPS6KA5 KD1 (human)): 100%; kinase still bound, per cent of control (SRPK1 (human)): 1.6%; kinase still bound, per cent of control (TBK1 (human)): 10%; kinase still bound, per cent of control (TEK (human)): 100%; kinase still bound, per cent of control (TLK1 (human)): 59%; kinase still bound, per cent of control (TNK1 (human)): 33%

Source: the kinase profiling compilation of Christmann-Franck et al. (2016)
